Assay [1] deals with Tyrosine-protein kinase receptor UFO (Homo sapiens), P30530 [R499C]. Description: Selectivity interaction (LanthaScreen Eu Kinase Binding Assay) EUB0001632a AXL. To be noted: at 10 µM.
Assay [2] addresses Serine/threonine-protein kinase haspin (Homo sapiens, UniProt Q8TF76). Kind of assay: Selectivity interaction (Enzymatic assay) EUB0001550a GSG2.
Assay [3] has as its target T1, Rhodopsin kinase GRK1 (Homo sapiens) (UniProt Q15835).
T1 sequence (whole entry): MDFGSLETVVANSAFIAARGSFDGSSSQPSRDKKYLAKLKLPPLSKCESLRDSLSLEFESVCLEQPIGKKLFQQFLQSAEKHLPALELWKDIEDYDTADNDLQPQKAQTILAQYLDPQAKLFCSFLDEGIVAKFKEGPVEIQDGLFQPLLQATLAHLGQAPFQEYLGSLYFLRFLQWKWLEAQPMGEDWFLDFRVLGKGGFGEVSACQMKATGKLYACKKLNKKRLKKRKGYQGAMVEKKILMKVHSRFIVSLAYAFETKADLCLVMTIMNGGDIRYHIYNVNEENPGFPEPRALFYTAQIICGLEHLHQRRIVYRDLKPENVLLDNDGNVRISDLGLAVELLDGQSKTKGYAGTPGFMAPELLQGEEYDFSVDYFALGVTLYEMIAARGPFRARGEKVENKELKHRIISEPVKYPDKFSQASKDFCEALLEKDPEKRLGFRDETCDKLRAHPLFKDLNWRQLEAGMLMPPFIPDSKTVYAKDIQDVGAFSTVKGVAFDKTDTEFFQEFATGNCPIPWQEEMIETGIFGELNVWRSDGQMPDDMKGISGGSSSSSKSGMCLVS
Conditions: at 10 µM.

Assay [4] concerns the target T2, Protein kinase C iota type (Homo sapiens) (UniProt P41743).
T2 sequence (whole entry): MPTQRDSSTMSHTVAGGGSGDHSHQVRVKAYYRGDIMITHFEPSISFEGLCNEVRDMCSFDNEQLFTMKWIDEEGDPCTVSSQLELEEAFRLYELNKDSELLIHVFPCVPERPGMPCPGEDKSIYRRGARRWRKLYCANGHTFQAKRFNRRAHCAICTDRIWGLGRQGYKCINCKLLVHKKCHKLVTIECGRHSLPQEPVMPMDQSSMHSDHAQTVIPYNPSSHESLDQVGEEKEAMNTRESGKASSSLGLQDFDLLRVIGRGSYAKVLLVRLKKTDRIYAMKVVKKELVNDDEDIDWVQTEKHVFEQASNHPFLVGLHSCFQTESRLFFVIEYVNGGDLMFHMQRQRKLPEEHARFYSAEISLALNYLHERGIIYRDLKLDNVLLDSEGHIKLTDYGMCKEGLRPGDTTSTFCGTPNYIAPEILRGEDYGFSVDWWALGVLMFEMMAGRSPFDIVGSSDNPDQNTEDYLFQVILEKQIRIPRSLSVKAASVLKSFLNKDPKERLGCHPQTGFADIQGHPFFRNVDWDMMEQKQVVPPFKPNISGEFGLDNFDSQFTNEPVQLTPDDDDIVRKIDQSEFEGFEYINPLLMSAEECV
Kind of assay: Selectivity interaction (KinomeScan (DiscoverX)) EUB0000045b PRKCI.

Assay [5] deals with Myosin-IIIa (Homo sapiens) (UniProt Q8NEV4). Description: Selectivity interaction (KinomeScan (DiscoverX)) EUB0001049a MYO3A. To be noted: at 1 µM.
Assay [6] addresses BDNF/NT-3 growth factors receptor (Homo sapiens) (UniProt Q16620). Kind of assay: Selectivity interaction (Upstate Kinase Profiler service (Millipore)) EUB0000056c NTRK2. Conditions: at 1 µM.
The target of assay [7] is Calcium/calmodulin-dependent protein kinase type 1D (Homo sapiens) (UniProt Q8IU85). Description: Selectivity interaction (KinomeScan (DiscoverX)) EUB0000655a CAMK1D. Conditions: at 10 µM.
Assay [8] has as its target Mast/stem cell growth factor receptor Kit (Homo sapiens, UniProt P10721). Kind of assay: Selectivity interaction (KinomeScan (DiscoverX)) EUB0001079a KIT. Conditions: at 1 µM.
The target in assay [9] is T3, Receptor-interacting serine/threonine-protein kinase 4 (Homo sapiens) (UniProt P57078).
T3 sequence (whole entry): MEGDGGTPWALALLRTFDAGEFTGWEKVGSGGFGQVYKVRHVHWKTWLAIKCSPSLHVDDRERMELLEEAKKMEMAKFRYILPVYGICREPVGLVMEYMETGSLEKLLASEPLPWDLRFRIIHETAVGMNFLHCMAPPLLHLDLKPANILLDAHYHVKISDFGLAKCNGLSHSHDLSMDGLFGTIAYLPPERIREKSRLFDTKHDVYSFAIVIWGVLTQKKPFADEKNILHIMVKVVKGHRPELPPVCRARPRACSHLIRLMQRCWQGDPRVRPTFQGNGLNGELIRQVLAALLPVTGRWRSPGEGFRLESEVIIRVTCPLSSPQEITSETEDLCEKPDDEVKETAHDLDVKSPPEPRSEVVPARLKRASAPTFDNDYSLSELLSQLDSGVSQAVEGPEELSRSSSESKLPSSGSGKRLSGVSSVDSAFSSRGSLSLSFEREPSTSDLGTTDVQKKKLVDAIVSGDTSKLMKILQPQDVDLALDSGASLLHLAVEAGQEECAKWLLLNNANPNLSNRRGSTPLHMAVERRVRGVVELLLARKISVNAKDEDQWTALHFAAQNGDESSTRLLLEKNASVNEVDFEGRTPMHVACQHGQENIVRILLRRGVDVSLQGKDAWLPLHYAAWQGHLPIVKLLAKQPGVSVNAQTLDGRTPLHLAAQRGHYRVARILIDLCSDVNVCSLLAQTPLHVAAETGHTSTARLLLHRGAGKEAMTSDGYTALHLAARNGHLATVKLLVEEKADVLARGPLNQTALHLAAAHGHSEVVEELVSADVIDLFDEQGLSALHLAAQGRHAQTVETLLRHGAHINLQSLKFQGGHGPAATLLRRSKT
Description: Selectivity interaction (KinomeScan (DiscoverX)) EUB0000229b RIPK4. To be noted: at 10 µM.

Calcium/calmodulin-dependent protein kinase type 1D (Homo sapiens), sequence (Q8IU85 whole entry, looked up): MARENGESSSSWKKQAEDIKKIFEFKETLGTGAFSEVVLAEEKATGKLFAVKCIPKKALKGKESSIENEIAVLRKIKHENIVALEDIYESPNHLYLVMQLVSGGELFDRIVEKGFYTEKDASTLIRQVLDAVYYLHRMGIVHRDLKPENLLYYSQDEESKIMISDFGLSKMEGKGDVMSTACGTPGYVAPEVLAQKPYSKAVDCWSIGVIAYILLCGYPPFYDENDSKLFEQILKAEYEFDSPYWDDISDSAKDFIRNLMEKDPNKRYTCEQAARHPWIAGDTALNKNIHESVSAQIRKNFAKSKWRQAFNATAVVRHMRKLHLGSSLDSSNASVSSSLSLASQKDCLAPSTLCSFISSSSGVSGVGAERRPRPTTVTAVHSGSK
Mast/stem cell growth factor receptor Kit, sequence (P10721 whole entry): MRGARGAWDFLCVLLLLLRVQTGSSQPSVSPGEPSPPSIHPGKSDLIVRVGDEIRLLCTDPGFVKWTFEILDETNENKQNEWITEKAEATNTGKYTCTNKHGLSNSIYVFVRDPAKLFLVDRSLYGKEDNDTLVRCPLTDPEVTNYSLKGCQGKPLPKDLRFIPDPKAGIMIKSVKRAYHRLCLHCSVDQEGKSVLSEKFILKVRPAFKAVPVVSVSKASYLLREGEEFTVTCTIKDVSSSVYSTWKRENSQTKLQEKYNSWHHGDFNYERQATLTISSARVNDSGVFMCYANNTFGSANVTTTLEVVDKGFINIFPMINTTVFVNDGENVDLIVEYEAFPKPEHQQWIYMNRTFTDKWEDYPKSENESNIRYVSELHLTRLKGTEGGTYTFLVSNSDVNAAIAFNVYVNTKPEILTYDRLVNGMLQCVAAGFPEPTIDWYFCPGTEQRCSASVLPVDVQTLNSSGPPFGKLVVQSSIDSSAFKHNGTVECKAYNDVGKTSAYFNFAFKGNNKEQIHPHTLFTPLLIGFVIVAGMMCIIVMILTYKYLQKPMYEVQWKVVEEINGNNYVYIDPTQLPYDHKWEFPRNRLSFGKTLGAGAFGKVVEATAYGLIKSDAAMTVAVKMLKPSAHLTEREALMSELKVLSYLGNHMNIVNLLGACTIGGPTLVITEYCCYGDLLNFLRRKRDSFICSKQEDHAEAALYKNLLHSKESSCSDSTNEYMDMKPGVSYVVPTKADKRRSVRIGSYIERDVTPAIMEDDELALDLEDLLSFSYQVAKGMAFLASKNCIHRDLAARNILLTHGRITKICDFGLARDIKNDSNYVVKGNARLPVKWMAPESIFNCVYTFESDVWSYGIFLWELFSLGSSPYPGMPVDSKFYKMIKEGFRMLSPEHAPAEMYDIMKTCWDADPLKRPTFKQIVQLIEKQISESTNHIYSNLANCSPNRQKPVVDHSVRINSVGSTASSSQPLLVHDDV
Serine/threonine-protein kinase haspin, sequence (Q8TF76 whole entry): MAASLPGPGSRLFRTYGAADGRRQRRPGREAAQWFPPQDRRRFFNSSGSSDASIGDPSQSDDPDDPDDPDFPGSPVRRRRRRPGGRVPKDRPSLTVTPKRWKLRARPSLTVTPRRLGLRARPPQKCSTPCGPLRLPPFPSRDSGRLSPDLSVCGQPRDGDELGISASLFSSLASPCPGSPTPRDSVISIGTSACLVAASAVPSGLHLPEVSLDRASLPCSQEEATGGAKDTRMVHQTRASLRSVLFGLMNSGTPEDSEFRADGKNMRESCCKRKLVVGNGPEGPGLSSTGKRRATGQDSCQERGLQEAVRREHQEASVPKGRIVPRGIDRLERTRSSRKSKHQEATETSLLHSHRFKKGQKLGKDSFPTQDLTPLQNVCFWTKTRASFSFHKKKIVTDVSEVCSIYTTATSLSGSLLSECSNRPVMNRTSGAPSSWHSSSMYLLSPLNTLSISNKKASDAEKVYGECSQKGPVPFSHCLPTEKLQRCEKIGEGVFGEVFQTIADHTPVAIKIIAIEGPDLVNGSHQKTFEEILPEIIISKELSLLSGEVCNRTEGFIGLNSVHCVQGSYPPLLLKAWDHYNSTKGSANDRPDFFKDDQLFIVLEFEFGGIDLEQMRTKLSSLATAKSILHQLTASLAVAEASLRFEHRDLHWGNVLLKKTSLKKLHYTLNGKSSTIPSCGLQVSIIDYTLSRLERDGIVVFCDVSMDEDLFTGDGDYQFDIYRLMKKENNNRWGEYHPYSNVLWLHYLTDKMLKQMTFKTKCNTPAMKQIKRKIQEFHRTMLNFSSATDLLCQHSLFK
BDNF/NT-3 growth factors receptor (Homo sapiens), sequence (Q16620 32-822 limits assumed): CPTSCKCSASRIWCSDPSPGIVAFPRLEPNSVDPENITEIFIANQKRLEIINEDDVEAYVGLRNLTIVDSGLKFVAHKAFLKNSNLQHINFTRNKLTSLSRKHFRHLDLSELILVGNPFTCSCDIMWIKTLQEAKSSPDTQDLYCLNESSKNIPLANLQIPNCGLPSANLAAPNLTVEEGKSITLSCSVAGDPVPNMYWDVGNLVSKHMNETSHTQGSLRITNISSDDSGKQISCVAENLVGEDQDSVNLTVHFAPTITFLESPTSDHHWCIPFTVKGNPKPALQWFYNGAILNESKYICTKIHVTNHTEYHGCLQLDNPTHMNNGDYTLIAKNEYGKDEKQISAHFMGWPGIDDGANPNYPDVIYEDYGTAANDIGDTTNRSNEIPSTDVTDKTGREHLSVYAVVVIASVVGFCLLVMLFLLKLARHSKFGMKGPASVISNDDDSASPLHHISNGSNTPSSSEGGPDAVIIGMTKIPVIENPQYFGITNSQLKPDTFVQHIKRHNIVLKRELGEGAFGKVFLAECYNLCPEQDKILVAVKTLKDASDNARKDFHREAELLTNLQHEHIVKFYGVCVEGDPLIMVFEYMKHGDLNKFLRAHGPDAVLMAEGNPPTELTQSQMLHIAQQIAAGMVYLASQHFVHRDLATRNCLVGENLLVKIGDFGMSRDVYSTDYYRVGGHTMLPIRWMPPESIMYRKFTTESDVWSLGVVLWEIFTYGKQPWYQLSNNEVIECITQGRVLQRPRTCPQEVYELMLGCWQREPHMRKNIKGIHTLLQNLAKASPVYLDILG
Myosin-IIIa (Homo sapiens), sequence (Q8NEV4 whole entry): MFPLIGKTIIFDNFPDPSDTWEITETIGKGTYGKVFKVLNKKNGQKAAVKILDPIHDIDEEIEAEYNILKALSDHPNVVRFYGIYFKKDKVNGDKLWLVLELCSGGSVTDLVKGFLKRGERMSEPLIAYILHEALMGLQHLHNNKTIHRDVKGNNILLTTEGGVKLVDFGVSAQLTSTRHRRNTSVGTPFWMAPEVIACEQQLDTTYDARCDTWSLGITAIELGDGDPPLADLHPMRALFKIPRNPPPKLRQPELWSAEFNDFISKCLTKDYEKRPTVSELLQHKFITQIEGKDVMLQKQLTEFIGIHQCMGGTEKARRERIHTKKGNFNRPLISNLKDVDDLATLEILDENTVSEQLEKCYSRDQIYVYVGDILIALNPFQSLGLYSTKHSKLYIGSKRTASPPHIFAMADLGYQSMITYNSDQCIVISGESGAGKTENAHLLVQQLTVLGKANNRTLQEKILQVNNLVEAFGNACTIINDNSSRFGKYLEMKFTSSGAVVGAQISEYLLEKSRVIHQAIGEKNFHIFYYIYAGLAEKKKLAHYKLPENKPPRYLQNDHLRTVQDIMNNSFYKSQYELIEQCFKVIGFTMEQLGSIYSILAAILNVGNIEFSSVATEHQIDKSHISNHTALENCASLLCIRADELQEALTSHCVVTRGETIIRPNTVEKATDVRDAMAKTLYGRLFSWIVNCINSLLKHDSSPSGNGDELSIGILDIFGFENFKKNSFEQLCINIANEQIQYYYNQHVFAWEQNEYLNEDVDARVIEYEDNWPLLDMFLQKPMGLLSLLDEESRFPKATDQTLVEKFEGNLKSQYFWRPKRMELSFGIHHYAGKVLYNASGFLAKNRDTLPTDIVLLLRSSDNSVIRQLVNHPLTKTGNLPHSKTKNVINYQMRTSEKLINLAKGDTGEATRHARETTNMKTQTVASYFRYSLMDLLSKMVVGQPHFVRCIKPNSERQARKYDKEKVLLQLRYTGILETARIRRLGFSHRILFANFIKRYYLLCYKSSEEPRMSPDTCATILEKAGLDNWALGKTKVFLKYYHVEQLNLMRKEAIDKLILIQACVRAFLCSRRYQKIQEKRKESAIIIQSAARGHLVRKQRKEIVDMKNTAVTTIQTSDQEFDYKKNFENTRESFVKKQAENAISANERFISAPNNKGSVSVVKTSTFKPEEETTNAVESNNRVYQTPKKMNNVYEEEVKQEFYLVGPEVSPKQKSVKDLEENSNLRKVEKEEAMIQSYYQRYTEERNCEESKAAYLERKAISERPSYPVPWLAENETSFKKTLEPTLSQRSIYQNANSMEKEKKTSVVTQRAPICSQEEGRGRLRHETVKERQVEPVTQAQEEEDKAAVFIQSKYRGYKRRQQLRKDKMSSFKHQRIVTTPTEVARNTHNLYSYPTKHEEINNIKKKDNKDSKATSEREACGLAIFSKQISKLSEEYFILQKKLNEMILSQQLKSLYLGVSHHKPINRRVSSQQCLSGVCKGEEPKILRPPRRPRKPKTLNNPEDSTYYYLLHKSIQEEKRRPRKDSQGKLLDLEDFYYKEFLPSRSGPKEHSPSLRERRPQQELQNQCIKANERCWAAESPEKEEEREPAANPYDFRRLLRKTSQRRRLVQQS

For the compound `Cn1cc(-n2cnc3c(NCc4nc5cc(Cl)c(Cl)cc5[nH]4)nc(N4CCOCC4)nc32)cn1`, the % of inhibition in assay [1] is -15.8%. As usually defined, the IC50 is the point on the concentration scale where inhibition reaches its midpoint. In [2], `CN(C)CC#Cc1ccc2[nH]c3c(c2c1)-c1nc(N)ncc1CCC3` registered a concentration for half-maximal inhibition (IC50) of 1.4 µM. The compound `Cc1cc([C@@H](C)Nc2ccccc2C(=O)O)c2nc(N3CCOCC3)cc(=O)n2c1` [AZD-6482] had a % of control in assay [3] of 100%. For `C=CC(=O)Nc1cc(-n2c(=O)ccc3cnc4ccc(-c5ccc(NS(C)(=O)=O)cc5)cc4c32)ccc1C`, the figures for the % of control in assay [4] (at 1 µM) and in assay [4] (at 10 µM) were 84% and 64%, respectively. In turn, `COc1cc(Nc2nc(C)cc(-c3cnn4nc(OC)ccc34)n2)cc(C(F)(F)F)c1` came in with a % of control in assay [5] of 87%. For the compound `Cc1ccc(-c2ccc3c(ccc4sc5c(c43)NC[C@@H](C)NC5=O)n2)cn1`, the % of inhibition in assay [6] is -8%. On to `CN(C)CCOc1ccc(-c2nc(-c3ccncc3)c(-c3ccc4c(c3)CC/C4=N\O)[nH]2)cc1`, for which the % of control in [7] came out at 100%. On to `Nc1cnc(N2CCc3cc(S(=O)(=O)Nc4c(F)cc(Cl)cc4F)cc(N4CCCC4=O)c32)nc1` [TP-020n], for which, in assay [8], the % of control stood at 100%.

Take `COc1cc(N(C)c2ccnc3ccc(C(F)(F)F)cc23)cc(OC)c1OC`: in [9], the % binding turned out to be 68%.
